We go through 2 molecules from patent US8007800B2, “Methods for treating bone cancer pain by administering a nerve growth factor antagonist antibody” (Pfizer Inc., priority 2004, dated 2011).

In assay [1] the test system is C3H/HeJ mice injected with NCTC 2472 osteolytic murine sarcoma cells into the femur. Description: Example 2: murine sarcoma bone cancer pain model, ongoing and palpation-evoked pain behaviors. The class given is in vivo, mouse. As to conditions: days 10 and 14, vs sarcoma+vehicle.
In the next assay the target is human NGF (Homo sapiens, UniProt P01138). Description: Binding affinity of Fab fragments to NGF (BIAcore surface plasmon resonance). As to conditions: measured using Fab fragments. On the procedure:
The binding affinity of an anti-NGF antibody to NGF (such as hNGF) can be about 0.10 to about 1.0 nM, about 0.10 nM to about 0.80 nM, about 0.15 to about 0.75 nM and about 0.18 to about 0.72 nM. […] In some embodiment, the binding affinity is about 10 nM. In other embodiments, the binding affinity is less than about 10 nM. […] As is well known in the art, binding affinity can be expressed as KD, or dissociation constant, and an increased binding affinity corresponds to a decreased KD.
One way of determining binding affinity of antibodies to NGF is by measuring binding affinity of monofunctional Fab fragments of the antibody. To obtain monofunctional Fab fragments, an antibody (for example, IgG) can be cleaved with papain or expressed recombinantly. The affinity of an anti-NGF Fab fragment of an antibody can be determined by surface plasmon resonance (BIAcore3000™ surface plasmon resonance (SPR) system, BIAcore, INC, Piscaway N.J.). CM5 chips can be activated with N-ethyl-N′-(3-dimethylaminopropyl)-carbodiinide hydrochloride (EDC) and N-hydroxysuccinimide (NHS) according to the supplier's instructions. […] The concentrations of the Fab proteins are determined by ELISA and/or SDS-PAGE electrophoresis using a Fab of known concentration (as determined by amino acid analysis) as a standard. […] Equilibrium dissociation constant (KD) values are calculated as koff/kon. […]

Sequence of human NGF (P01138 122-241): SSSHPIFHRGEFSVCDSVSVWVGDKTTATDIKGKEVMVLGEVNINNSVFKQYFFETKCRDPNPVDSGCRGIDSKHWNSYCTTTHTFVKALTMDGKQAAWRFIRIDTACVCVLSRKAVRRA

Take `CN1CC[C@]23c4c5ccc(O)c4O[C@H]2[C@@H](O)C=C[C@H]3[C@H]1C5.O=S(=O)(O)O` [morphine sulfate]: the “ongoing and movement-evoked guarding behaviors” value in assay [1] (morphine sulfate 10 mg/kg i.p. 15 min prior to testing) and in assay [1] (morphine sulfate 30 mg/kg i.p. 15 min prior to testing) was “significantly reduced” throughout.
As for “antibody E3: humanized mouse anti-NGF monoclonal antibody; human IgG2a constant region A330P331 to S330S331, kappa light chain, variable regions SEQ ID NO:1 and 2”, in the assay with human NGF, the equilibrium dissociation constant (Kd) is approximately 0.07 nM.
